Test results: ChEMBL document CHEMBL1255229, “Novel antimicrobial peptides that exhibit activity against select agents and other drug resistant bacteria” (2010)
Converted amounts (≈) assume the structure as drawn. Starred links: 1 amine or outer side, 2 acyl side, 3 side chain; linkers in the order of their positions; H or OH if unused. Non-standard residues stand in square brackets, D forms with d. Residues, ends and D or L forms follow the SMILES beside them. ξ: configuration not given here. Pro(3ξ,4ξ-(CH2)4) = O=C(O)[C@H]1NCC2CCCCC21; Oic = O=C(O)[C@@H]1C[C@@H]2CCCC[C@@H]2N1; X1 = O=C([C@@H]1CN([*:1])C2CCCCC21)[*:2]; Phe(4-F) = N[C@@H](Cc1ccc(F)cc1)C(=O)O; Tic = O=C(O)[C@@H]1Cc2ccccc2CN1; Dap = NC[C@H](N)C(=O)O; GABA = NCCCC(=O)O; βAla = NCCC(=O)O

Key:
Format in all cases: functional
Brucella suis = test: Antimicrobial activity against Brucella suis ATCC 23445 after 24 hrs; conditions: ATCC 23445, 24 h
Bacillus anthracis = test: Antimicrobial activity against Bacillus anthracis Ames after 24 hrs
[1] = test system: Burkholderia pseudomallei; test: Antimicrobial activity against Burkholderia pseudomallei BURK003(1026b) after 24 hrs
Acinetobacter baumannii [2] = test: Antimicrobial activity against Acinetobacter baumannii ATCC 19606 after 24 hrs; conditions: ATCC 19606 = CIP 70.34 = JCM 6841, 24 h
Francisella tularensis = test: Antimicrobial activity against Francisella tularensis SCHU-S4 after 24 hrs; conditions: SCHU-S4, 24 h
Burkholderia mallei = test: Antimicrobial activity against Burkholderia mallei ATCC 23444 after 24 hrs; conditions: ATCC 23444, 24 h
Brucella abortus = test: Antimicrobial activity against Brucella abortus 2308 after 24 hrs; conditions: Brucella abortus, 2308, 24 h
Acinetobacter baumannii [3] = test: Antimicrobial activity against Acinetobacter baumannii WRAIR after 24 hrs
Yersinia pestis = test: Antimicrobial activity against Yersinia pestis CO92 after 24 hrs; conditions: CO92, 24 h
Staphylococcus aureus = test: Antimicrobial activity against methicillin-resistant Staphylococcus aureus ATCC 33591 after 24 hrs; conditions: ATCC 33591, 24 h
Brucella melitensis = test: Antimicrobial activity against Brucella melitensis 16 M after 24 hrs

For `CC(=O)NCC(=O)N[C@@H](Cc1ccccc1)C(=O)N1Cc2ccccc2C[C@H]1C(=O)N1[C@H](C(=O)NCC(=O)N[C@@H](CN)C(=O)N2Cc3ccccc3C[C@H]2C(=O)N2[C@H](C(=O)NCC(=O)N[C@@H](Cc3ccccc3)C(=O)N3Cc4ccccc4C[C@H]3C(=O)N3[C@H](C(=O)NCC(=O)N[C@@H](CN)C(=O)N4Cc5ccccc5C[C@H]4C(=O)N[C@@H](CN)C(=O)N[C@@H](CN)C(=O)N[C@@H](CN)C(=O)N[C@@H](CN)C(N)=O)C[C@@H]4CCCC[C@@H]43)C[C@@H]3CCCC[C@@H]32)C[C@@H]2CCCC[C@@H]21` (Ac-GF[Tic][Oic]G[Dap][Tic][Oic]GF[Tic][Oic]G[Dap][Tic][Dap][Dap][Dap][Dap]-NH2), the MIC (Brucella suis) was 228 µM (≈ 499 µg/mL), the MIC (Bacillus anthracis) was 14.8 µM (≈ 32.4 µg/mL) and the MIC [1] was 228 µM (≈ 499 µg/mL). For the same compound, the MIC (Acinetobacter baumannii [2]) was 3.6 µM (≈ 7.88 µg/mL), the MIC (Francisella tularensis) was 228 µM (≈ 499 µg/mL) and the MIC (Burkholderia mallei) was 228 µM (≈ 499 µg/mL). It also gave an MIC (Brucella abortus) of 228 µM (≈ 499 µg/mL), an MIC (Acinetobacter baumannii [3]) of 3.6 µM (≈ 7.88 µg/mL) and an MIC (Yersinia pestis) of 228 µM (≈ 499 µg/mL). The MIC (Staphylococcus aureus) was 114 µM (≈ 249 µg/mL) and the MIC (Brucella melitensis) was 228 µM (≈ 499 µg/mL).
`CC(=O)NCCC(=O)N[C@@H](Cc1ccc(F)cc1)C(=O)N1Cc2ccccc2C[C@H]1C(=O)N1CC2CCCCC2[C@H]1C(=O)NCCC(=O)N[C@@H](CN)C(=O)N1Cc2ccccc2C[C@H]1C(=O)N1CC2CCCCC2[C@H]1C(=O)NCCC(=O)N[C@@H](Cc1ccc(F)cc1)C(=O)N1Cc2ccccc2C[C@H]1C(=O)N1CC2CCCCC2[C@H]1C(=O)NCCC(=O)N[C@@H](CN)C(=O)N1Cc2ccccc2C[C@H]1C(=O)N[C@@H](CN)C(=O)N[C@@H](CN)C(=O)N[C@@H](CN)C(=O)N[C@@H](CN)C(N)=O` (some centres undefined) (Ac-[βAla][Phe(4-F)][Tic][Pro(3ξ,4ξ-(CH2)4)][βAla][Dap][Tic][Pro(3ξ,4ξ-(CH2)4)][βAla][Phe(4-F)][Tic][Pro(3ξ,4ξ-(CH2)4)][βAla][Dap][Tic][Dap][Dap][Dap][Dap]-NH2) showed an MIC (Brucella suis) of 219 µM (≈ 499 µg/mL), an MIC (Bacillus anthracis) of 6.8 µM (≈ 15.5 µg/mL) and an MIC [1] of 219 µM (≈ 499 µg/mL). The MIC (Acinetobacter baumannii [2]) was 3.4 µM (≈ 7.75 µg/mL), the MIC (Francisella tularensis) was 219 µM (≈ 499 µg/mL) and the MIC (Burkholderia mallei) was 219 µM (≈ 499 µg/mL). The MIC (Brucella abortus) was 219 µM (≈ 499 µg/mL), the MIC (Acinetobacter baumannii [3]) was 3.4 µM (≈ 7.75 µg/mL) and the MIC (Yersinia pestis) was 219 µM (≈ 499 µg/mL). For the same compound, the MIC (Staphylococcus aureus) was 109 µM (≈ 249 µg/mL) and the MIC (Brucella melitensis) was 219 µM (≈ 499 µg/mL).
In the case of `CC(=O)N[C@@H](Cc1ccccc1)C(=O)N1Cc2ccccc2C[C@H]1C(=O)N1CC2CCCCC2[C@H]1C(=O)N[C@@H](CCCCN)C(=O)N1Cc2ccccc2C[C@H]1C(=O)N1CC2CCCCC2[C@H]1C(=O)N[C@@H](Cc1ccccc1)C(=O)N1Cc2ccccc2C[C@H]1C(=O)N1CC2CCCCC2[C@H]1C(=O)N[C@@H](CCCCN)C(=O)N1Cc2ccccc2C[C@H]1C(=O)N[C@@H](CCCCN)C(=O)N[C@@H](CCCCN)C(=O)N[C@@H](CCCCN)C(=O)N[C@@H](CCCCN)C(=O)N[C@@H](CCCCN)C(=O)N[C@@H](CCCCN)C(N)=O` (some centres undefined) (Ac-F[Tic][Pro(3ξ,4ξ-(CH2)4)]K[Tic][Pro(3ξ,4ξ-(CH2)4)]F[Tic][Pro(3ξ,4ξ-(CH2)4)]K[Tic]KKKKKK-NH2), the MIC (Brucella suis) is reported as 13 µM (≈ 32.1 µg/mL), the MIC (Bacillus anthracis) is reported as 0.75 µM (≈ 1.85 µg/mL) and the MIC [1] is reported as 202 µM (≈ 499 µg/mL). The MIC (Acinetobacter baumannii [2]) was 6.3 µM (≈ 15.6 µg/mL), the MIC (Francisella tularensis) was 202 µM (≈ 499 µg/mL) and the MIC (Burkholderia mallei) was 202 µM (≈ 499 µg/mL). The MIC (Brucella abortus) was 101 µM (≈ 249 µg/mL), the MIC (Acinetobacter baumannii [3]) was 6.3 µM (≈ 15.6 µg/mL) and the MIC (Yersinia pestis) was 101 µM (≈ 249 µg/mL). The MIC (Staphylococcus aureus) was 25.3 µM (≈ 62.5 µg/mL) and the MIC (Brucella melitensis) was 202 µM (≈ 499 µg/mL).
Work on `CC(=O)NCCCC(=O)N[C@@H](Cc1ccccc1)C(=O)N1Cc2ccccc2C[C@H]1C(=O)N1C[C@@H](C(=O)NCCCC(=O)N[C@@H](CCCCN)C(=O)N2Cc3ccccc3C[C@H]2C(=O)N2C[C@@H](C(=O)NCCCC(=O)N[C@@H](Cc3ccccc3)C(=O)N3Cc4ccccc4C[C@H]3C(=O)N3C[C@@H](C(=O)NCCCC(=O)N[C@@H](CCCCN)C(=O)N4Cc5ccccc5C[C@H]4C(=O)N[C@@H](CCCCN)C(=O)N[C@@H](CCCCN)C(=O)N[C@@H](CCCCN)C(=O)N[C@@H](CCCCN)C(N)=O)C4CCCCC43)C3CCCCC32)C2CCCCC21` (some centres undefined) (Ac-[GABA]F[Tic][X1][GABA]K[Tic][X1][GABA]F[Tic][X1][GABA]K[Tic]KKKK-NH2) yielded an MIC (Brucella suis) of 196 µM (≈ 500 µg/mL), an MIC (Bacillus anthracis) of 12.5 µM (≈ 31.9 µg/mL) and an MIC [1] of 196 µM (≈ 500 µg/mL). The MIC (Acinetobacter baumannii [2]) was 3.1 µM (≈ 7.92 µg/mL), the MIC (Francisella tularensis) was 196 µM (≈ 500 µg/mL) and the MIC (Burkholderia mallei) was 196 µM (≈ 500 µg/mL). It also gave an MIC (Brucella abortus) of 196 µM (≈ 500 µg/mL), an MIC (Acinetobacter baumannii [3]) of 3.1 µM (≈ 7.92 µg/mL) and an MIC (Yersinia pestis) of 196 µM (≈ 500 µg/mL). The MIC (Staphylococcus aureus) was 196 µM (≈ 500 µg/mL) and the MIC (Brucella melitensis) was 196 µM (≈ 500 µg/mL).
